Data published in US8236833B2, “Biphenyl derivatives as modulators of voltage gated ion channels” (Vertex Pharmaceuticals Incorporated, priority 2005, dated 2012).
Like-named read-outs stand apart in the source and are kept apart here.

Assays:
[1] = tested on: voltage-gated sodium ion channels; experiment: Assays for detecting and measuring NaV inhibition properties of compounds (Table 3 activity data; the specific assay and subtype are not stated); assay type: cell-based
neuropathic pain = conditions: in vivo; cited from earlier work
NaV1.3 = NaV1.3 (Homo sapiens, UniProt Q9NY46); conditions: read-out: TTX IC50; cited from earlier work
NaV1.9 = NaV1.9 (Homo sapiens, UniProt Q9UI33); conditions: read-out: TTX IC50; cited from earlier work
NaV1.8 = NaV1.8 (Homo sapiens, UniProt Q9Y5Y9); conditions: read-out: TTX IC50; cited from earlier work
NaV1.1 = NaV1.1 (Homo sapiens, UniProt P35498); conditions: read-out: TTX IC50; cited from earlier work
NaV1.6 = NaV1.6 (Homo sapiens, UniProt Q9UQD0); conditions: read-out: TTX IC50; cited from earlier work
[2] = activity data for selected compounds, NaV subtype not stated, read-out: IC50

NaV1.3, sequence (Q9NY46 whole entry, looked up): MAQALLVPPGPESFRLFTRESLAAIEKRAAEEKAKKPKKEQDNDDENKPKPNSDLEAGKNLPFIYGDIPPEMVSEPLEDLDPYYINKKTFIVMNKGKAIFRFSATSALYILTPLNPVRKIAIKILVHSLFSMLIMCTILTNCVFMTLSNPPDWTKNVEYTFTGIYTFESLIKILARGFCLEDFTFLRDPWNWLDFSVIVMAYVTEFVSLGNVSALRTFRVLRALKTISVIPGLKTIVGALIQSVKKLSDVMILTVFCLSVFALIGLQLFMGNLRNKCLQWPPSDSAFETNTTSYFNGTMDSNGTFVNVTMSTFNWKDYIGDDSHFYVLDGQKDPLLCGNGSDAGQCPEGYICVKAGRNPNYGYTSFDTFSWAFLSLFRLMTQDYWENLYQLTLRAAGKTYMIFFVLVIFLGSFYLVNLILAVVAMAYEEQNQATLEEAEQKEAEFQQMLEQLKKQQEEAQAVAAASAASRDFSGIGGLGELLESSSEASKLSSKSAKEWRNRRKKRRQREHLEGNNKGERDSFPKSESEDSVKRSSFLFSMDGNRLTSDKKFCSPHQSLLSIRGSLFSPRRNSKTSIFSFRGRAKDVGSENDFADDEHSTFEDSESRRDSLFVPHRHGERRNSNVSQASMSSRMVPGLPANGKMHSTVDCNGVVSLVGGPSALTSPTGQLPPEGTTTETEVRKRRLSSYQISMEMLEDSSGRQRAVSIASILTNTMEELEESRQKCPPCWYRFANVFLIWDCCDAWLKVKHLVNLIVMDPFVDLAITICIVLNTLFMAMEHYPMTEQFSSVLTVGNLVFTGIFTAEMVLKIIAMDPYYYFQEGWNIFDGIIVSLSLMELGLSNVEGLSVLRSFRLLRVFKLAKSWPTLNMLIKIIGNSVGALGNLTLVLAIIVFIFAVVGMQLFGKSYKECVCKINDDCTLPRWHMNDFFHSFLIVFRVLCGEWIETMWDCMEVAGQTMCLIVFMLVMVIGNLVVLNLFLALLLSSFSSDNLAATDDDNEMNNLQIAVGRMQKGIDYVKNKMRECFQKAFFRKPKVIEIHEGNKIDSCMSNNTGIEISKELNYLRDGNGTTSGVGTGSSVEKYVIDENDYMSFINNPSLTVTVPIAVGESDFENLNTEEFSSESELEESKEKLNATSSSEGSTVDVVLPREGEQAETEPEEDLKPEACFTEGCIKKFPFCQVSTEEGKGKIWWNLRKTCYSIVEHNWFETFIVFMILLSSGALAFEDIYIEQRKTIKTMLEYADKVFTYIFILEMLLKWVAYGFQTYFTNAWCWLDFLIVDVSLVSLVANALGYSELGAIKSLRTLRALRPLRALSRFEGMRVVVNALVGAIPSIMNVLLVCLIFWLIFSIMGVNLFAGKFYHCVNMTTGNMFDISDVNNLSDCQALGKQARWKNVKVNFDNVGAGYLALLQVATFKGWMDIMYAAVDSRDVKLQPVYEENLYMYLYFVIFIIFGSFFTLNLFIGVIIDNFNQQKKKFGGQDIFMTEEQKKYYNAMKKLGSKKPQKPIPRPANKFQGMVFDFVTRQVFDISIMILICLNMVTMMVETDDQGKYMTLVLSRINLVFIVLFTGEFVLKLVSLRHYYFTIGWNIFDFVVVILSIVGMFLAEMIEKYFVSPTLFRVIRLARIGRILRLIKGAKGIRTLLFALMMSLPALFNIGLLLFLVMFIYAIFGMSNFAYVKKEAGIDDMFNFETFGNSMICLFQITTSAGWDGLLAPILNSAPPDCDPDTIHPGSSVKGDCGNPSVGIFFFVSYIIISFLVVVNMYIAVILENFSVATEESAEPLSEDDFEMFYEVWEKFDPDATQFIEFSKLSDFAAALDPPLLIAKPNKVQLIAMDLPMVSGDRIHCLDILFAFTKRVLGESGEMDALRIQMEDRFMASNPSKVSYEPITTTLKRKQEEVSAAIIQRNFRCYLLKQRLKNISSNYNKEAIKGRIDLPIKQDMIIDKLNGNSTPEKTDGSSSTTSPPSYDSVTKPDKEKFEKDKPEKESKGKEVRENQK
NaV1.6, sequence (Q9UQD0 whole entry, looked up): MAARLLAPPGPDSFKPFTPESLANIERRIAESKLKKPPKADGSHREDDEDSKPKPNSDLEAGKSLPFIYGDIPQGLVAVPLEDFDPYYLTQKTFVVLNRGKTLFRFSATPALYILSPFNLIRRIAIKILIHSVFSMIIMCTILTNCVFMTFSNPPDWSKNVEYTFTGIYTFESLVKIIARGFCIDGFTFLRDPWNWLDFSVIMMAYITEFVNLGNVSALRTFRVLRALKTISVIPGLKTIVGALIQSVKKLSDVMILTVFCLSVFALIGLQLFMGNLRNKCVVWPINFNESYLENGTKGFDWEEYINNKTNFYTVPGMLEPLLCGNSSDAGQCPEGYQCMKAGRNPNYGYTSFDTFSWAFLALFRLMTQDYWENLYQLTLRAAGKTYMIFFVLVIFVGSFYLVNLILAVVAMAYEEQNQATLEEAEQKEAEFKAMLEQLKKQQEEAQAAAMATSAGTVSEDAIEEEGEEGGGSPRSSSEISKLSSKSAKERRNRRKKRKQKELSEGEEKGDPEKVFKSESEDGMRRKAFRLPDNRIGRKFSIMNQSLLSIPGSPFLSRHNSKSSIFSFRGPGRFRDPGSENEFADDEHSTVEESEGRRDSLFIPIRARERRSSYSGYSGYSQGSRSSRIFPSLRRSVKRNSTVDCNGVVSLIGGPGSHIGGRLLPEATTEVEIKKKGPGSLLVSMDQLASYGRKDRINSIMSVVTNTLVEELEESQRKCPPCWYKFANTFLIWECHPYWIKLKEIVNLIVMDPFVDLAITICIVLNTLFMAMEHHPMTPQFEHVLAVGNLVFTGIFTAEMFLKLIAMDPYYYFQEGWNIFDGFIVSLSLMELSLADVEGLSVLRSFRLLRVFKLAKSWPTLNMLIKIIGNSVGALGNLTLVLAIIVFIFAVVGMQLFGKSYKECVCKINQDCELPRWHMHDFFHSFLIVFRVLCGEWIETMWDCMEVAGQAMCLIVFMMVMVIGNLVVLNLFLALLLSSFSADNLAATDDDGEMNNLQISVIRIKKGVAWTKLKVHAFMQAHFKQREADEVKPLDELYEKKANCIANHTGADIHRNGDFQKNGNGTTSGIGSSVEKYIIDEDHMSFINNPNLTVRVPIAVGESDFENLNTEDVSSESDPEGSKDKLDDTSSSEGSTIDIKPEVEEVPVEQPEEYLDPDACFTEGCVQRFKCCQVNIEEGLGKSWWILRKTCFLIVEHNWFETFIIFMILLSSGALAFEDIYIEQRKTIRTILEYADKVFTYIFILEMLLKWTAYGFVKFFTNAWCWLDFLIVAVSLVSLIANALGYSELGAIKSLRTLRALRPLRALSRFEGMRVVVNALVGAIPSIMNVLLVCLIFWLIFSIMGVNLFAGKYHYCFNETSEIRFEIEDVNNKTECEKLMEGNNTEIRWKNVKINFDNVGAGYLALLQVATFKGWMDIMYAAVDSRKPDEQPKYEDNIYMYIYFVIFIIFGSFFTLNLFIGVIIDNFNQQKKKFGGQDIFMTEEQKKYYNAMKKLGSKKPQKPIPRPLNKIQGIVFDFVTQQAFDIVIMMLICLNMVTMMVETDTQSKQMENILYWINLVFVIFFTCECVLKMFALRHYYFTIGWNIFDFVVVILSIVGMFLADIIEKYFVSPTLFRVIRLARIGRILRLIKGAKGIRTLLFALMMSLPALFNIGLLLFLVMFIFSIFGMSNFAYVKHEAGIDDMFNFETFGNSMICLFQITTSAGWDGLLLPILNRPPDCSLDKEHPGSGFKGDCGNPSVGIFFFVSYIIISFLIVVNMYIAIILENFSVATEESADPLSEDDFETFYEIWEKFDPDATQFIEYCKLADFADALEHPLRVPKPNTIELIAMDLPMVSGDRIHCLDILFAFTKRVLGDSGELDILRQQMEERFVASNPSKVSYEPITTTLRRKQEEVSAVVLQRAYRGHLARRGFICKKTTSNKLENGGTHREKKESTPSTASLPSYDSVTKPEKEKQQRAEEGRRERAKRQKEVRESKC

Structure (SMILES): O=C(COc1cccc(Cl)c1)Nc1ccc(-c2ccc(S(=O)(=O)Nc3nccs3)cc2)cc1 [Compound 5, 2-(3-Chloro-phenoxy)-N-[4′-(thiazol-2-ylsulfamoyl)-biphenyl-4-yl]-acetamide]
- IC50 [1, 2]: 1000 to 5000 nM

Structure (SMILES): NCC1(CC(=O)O)CCCCC1 [Gabapentin]
- share of patients in which it works (neuropathic pain): 60%

Structure (SMILES): NC1=N[C@H](O)[C@H]2[C@H]3O[C@]4(O)O[C@@H]([C@@H](O)[C@@]2(N1)[C@@H]4O)[C@]3(O)CO [TTX, tetrodotoxin]
- IC50 (NaV1.3): 15 nM
- IC50 (NaV1.9): 1000 nM
- IC50 (NaV1.8): > 50000 nM
- IC50 (NaV1.1): 10 nM
- IC50 (NaV1.6): 6 nM

Structure (SMILES): C[C@@H](C(=O)Nc1ccc(-c2ccc(S(=O)(=O)Nc3nccs3)cc2)cc1)n1ccc2c(F)cccc21 [Compound 6, (S)-2-(4-Fluoro-indol-1-yl)-N-[4′-(thiazol-2-ylsulfamoyl)-biphenyl-4-yl]-propionamide]
- IC50 [1, 2]: < 1000 nM

Structure (SMILES): O=C(COc1ccnc2c(C(F)(F)F)cccc12)Nc1ccc(-c2ccc(S(=O)(=O)Nc3nccs3)cc2)cc1 [Compound 4, N-[4′-(Thiazol-2-ylsulfamoyl)-biphenyl-4-yl]-2-(8-trifluoromethyl-quinolin-4-yloxy)-acetamide]
- IC50 [1, 2]: > 5000 nM

Structure (SMILES): COc1cccc(CC(=O)Nc2ccc(-c3ccc(S(=O)(=O)Nc4nccs4)cc3)cc2)c1 [Compound 2]
- IC50 [1]: > 5000 nM

Structure (SMILES): O=C(Nc1ccc(-c2ccc(S(=O)(=O)Nc3nccs3)cc2)cc1)c1ccccc1F [Compound 3]
- IC50 [1]: 1000 to 5000 nM

Structure (SMILES): O=C(COc1ccc(Cl)cc1)Nc1ccc(-c2ccc(S(=O)(=O)Nc3nccs3)cc2)cc1 [Compound 1]
- IC50 [1, 2]: 1000 to 5000 nM
